Test results reported in ChEMBL document CHEMBL1201862, “PubChem BioAssay data set” (2004).
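Where inhibition never reached the appropriate level, the endpoint shown equals the highest concentration tested. Otherwise, values were interpolated linearly from a five-concentration, 48-hour dose response in 96-well plates. At the GI50, growth is halved.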 Calls of active or inactive are those of the source. Cut-off read from the data, not from the text of the source: active = GI50 up to about 1.1 µM and inactive = higher.

What was measured:
Test in all cases: NCI-60 cell line screen, 48 h
786-0 = tested on: 786-0
A549 = tested on: A549
ACHN = tested on: ACHN
BT-549 = tested on: BT-549
CAKI-1 = tested on: CAKI-1
CCRF-CEM = tested on: CCRF-CEM
COLO 205 = tested on: COLO 205
DU-145 = tested on: DU-145
EKVX = tested on: EKVX
HCC 2998 = tested on: HCC 2998
HCT-116 = tested on: HCT-116
HCT-15 = tested on: HCT-15
HL-60 = tested on: HL-60
HOP-62 = tested on: HOP-62
HOP-92 = tested on: HOP-92
HT-29 = tested on: HT-29
Hs-578T = tested on: Hs-578T
IGROV-1 = tested on: IGROV-1
K562 = tested on: K562
KM12 = tested on: KM12
LOX IMVI = tested on: LOX IMVI
M14 = tested on: M14
MCF7 = tested on: MCF7
MDA-MB-231 = tested on: MDA-MB-231
MDA-MB-435 = tested on: MDA-MB-435
MDA-N = tested on: MDA-N
MOLT-4 = tested on: MOLT-4
Malme-3M = tested on: Malme-3M
NCI-H226 = tested on: NCI-H226
NCI-H23 = tested on: NCI-H23
NCI-H460 = tested on: NCI-H460
NCI-H522 = tested on: NCI-H522
NCI/ADR-RES = tested on: NCI/ADR-RES
OVCAR-3 = tested on: OVCAR-3
OVCAR-4 = tested on: OVCAR-4
OVCAR-5 = tested on: OVCAR-5
OVCAR-8 = tested on: OVCAR-8
PC-3 = tested on: PC-3
SF-268 = tested on: SF-268
SF-295 = tested on: SF-295
SF-539 = tested on: SF-539
SK-MEL-28 = tested on: SK-MEL-28
SK-MEL-2 = tested on: SK-MEL-2
SK-OV-3 = tested on: SK-OV-3
SN12C = tested on: SN12C
SNB-19 = tested on: SNB-19
SNB-75 = tested on: SNB-75
SR = tested on: SR
SW-620 = tested on: SW-620
TK-10 = tested on: TK-10
U-251 = tested on: U-251
UACC-257 = tested on: UACC-257
UACC-62 = tested on: UACC-62
UO-31 = tested on: UO-31
A498 = tested on: A498
RPMI-8226 = tested on: RPMI-8226
SK-MEL-5 = tested on: SK-MEL-5
RXF 393 = tested on: RXF 393
T47D = tested on: T47D

## Cc1ccc2nc(CN(CCO)CCO)cc(=O)n2c1
786-0
  GI50: > 100 µM (inactive)
A549
  GI50: > 100 µM (inactive)
ACHN
  GI50: > 100 µM (inactive)
BT-549
  GI50: > 100 µM (inactive)
CAKI-1
  GI50: > 100 µM (inactive)
CCRF-CEM
  GI50: > 100 µM (inactive)
COLO 205
  GI50: > 100 µM (inactive)
DU-145
  GI50: > 100 µM (inactive)
EKVX
  GI50: > 100 µM (inactive)
HCC 2998
  GI50: > 100 µM (inactive)
HCT-116
  GI50: > 100 µM (inactive)
HCT-15
  GI50: > 100 µM
HL-60
  GI50: > 100 µM (inactive)
HOP-62
  GI50: > 100 µM (inactive)
HOP-92
  GI50: > 100 µM (inactive)
HT-29
  GI50: > 100 µM (inactive)
Hs-578T
  GI50: > 100 µM (inactive)
IGROV-1
  GI50: > 100 µM (inactive)
K562
  GI50: > 100 µM (inactive)
KM12
  GI50: > 100 µM (inactive)
LOX IMVI
  GI50: > 100 µM (inactive)
M14
  GI50: > 100 µM (inactive)
MCF7
  GI50: > 100 µM (inactive)
MDA-MB-231
  GI50: > 100 µM (inactive)
MDA-MB-435
  GI50: > 100 µM (inactive)
MDA-N
  GI50: > 100 µM (inactive)
MOLT-4
  GI50: > 100 µM (inactive)
Malme-3M
  GI50: > 100 µM (inactive)
NCI-H226
  GI50: > 100 µM (inactive)
NCI-H23
  GI50: > 100 µM (inactive)
NCI-H460
  GI50: > 100 µM (inactive)
NCI-H522
  GI50: > 100 µM (inactive)
NCI/ADR-RES
  GI50: > 100 µM (inactive)
OVCAR-3
  GI50: > 100 µM (inactive)
OVCAR-4
  GI50: > 100 µM (inactive)
OVCAR-5
  GI50: > 100 µM (inactive)
OVCAR-8
  GI50: > 100 µM (inactive)
PC-3
  GI50: > 100 µM (inactive)
SF-268
  GI50: > 100 µM (inactive)
SF-295
  GI50: > 100 µM (inactive)
SF-539
  GI50: > 100 µM (inactive)
SK-MEL-28
  GI50: > 100 µM (inactive)
SK-MEL-2
  GI50: > 100 µM (inactive)
SK-OV-3
  GI50: > 100 µM (inactive)
SN12C
  GI50: > 100 µM (inactive)
SNB-19
  GI50: > 100 µM (inactive)
SNB-75
  GI50: > 100 µM (inactive)
SR
  GI50: > 100 µM (inactive)
SW-620
  GI50: > 100 µM (inactive)
TK-10
  GI50: > 100 µM (inactive)
U-251
  GI50: > 100 µM (inactive)
UACC-257
  GI50: > 100 µM (inactive)
UACC-62
  GI50: > 100 µM (inactive)
UO-31
  GI50: > 100 µM (inactive)

## COC(=O)[C@](NC(=O)OCc1ccccc1)([C@@H](C)Sc1ccc(C)cc1)C(F)(F)F
786-0
  GI50: 59.7 µM (inactive)
A498
  GI50: > 100 µM (inactive)
A549
  GI50: 34.6 µM (inactive)
ACHN
  GI50: 60.3 µM (inactive)
BT-549
  GI50: 34.9 µM (inactive)
CAKI-1
  GI50: 57.5 µM (inactive)
CCRF-CEM
  GI50: 13.6 µM (inactive)
COLO 205
  GI50: 19.2 µM (inactive)
DU-145
  GI50: 24.7 µM (inactive)
EKVX
  GI50: 57.9 µM (inactive)
HCC 2998
  GI50: > 100 µM (inactive)
HCT-116
  GI50: 35.4 µM (inactive)
HCT-15
  GI50: 27.5 µM
HL-60
  GI50: 17.4 µM (inactive)
HOP-62
  GI50: > 100 µM (inactive)
HT-29
  GI50: 34.7 µM (inactive)
Hs-578T
  GI50: 44.9 µM (inactive)
IGROV-1
  GI50: 16.5 µM (inactive)
K562
  GI50: 23.6 µM (inactive)
KM12
  GI50: 42.7 µM (inactive)
LOX IMVI
  GI50: 39 µM (inactive)
M14
  GI50: 68.2 µM (inactive)
MCF7
  GI50: 28.9 µM (inactive)
MDA-MB-435
  GI50: 49.2 µM (inactive)
MDA-N
  GI50: 63.5 µM (inactive)
MOLT-4
  GI50: 21 µM (inactive)
Malme-3M
  GI50: 55.7 µM (inactive)
NCI-H23
  GI50: 19.7 µM (inactive)
NCI-H460
  GI50: 34.5 µM (inactive)
NCI-H522
  GI50: 25.1 µM (inactive)
NCI/ADR-RES
  GI50: 36 µM (inactive)
OVCAR-3
  GI50: > 100 µM (inactive)
OVCAR-4
  GI50: 32.3 µM (inactive)
OVCAR-5
  GI50: > 100 µM (inactive)
OVCAR-8
  GI50: 19.5 µM (inactive)
PC-3
  GI50: 43 µM (inactive)
RPMI-8226
  GI50: 29.2 µM (inactive)
SF-268
  GI50: 38.4 µM (inactive)
SF-295
  GI50: 61.1 µM (inactive)
SF-539
  GI50: 69.3 µM (inactive)
SK-MEL-28
  GI50: 91.8 µM (inactive)
SK-MEL-2
  GI50: > 100 µM (inactive)
SK-MEL-5
  GI50: 18.3 µM (inactive)
SK-OV-3
  GI50: > 100 µM (inactive)
SNB-19
  GI50: > 100 µM (inactive)
SR
  GI50: 31.1 µM (inactive)
SW-620
  GI50: 27.2 µM (inactive)
U-251
  GI50: 46.9 µM (inactive)
UACC-257
  GI50: 35 µM (inactive)
UACC-62
  GI50: 39.2 µM (inactive)
UO-31
  GI50: 51.9 µM (inactive)

## COCN1C(=O)[C@@H]2CCCN2C(=O)c2ccc([N+](=O)[O-])cc21
786-0
  GI50: > 100 µM (inactive)
A498
  GI50: > 100 µM (inactive)
A549
  GI50: > 100 µM (inactive)
ACHN
  GI50: > 100 µM (inactive)
BT-549
  GI50: > 100 µM (inactive)
CAKI-1
  GI50: > 100 µM (inactive)
CCRF-CEM
  GI50: > 100 µM (inactive)
COLO 205
  GI50: > 100 µM (inactive)
DU-145
  GI50: > 100 µM (inactive)
EKVX
  GI50: > 100 µM (inactive)
HCC 2998
  GI50: > 100 µM (inactive)
HCT-116
  GI50: > 100 µM (inactive)
HCT-15
  GI50: > 100 µM
HL-60
  GI50: 87.5 µM (inactive)
HOP-62
  GI50: > 100 µM (inactive)
HOP-92
  GI50: > 100 µM (inactive)
HT-29
  GI50: > 100 µM (inactive)
Hs-578T
  GI50: > 100 µM (inactive)
IGROV-1
  GI50: > 100 µM (inactive)
K562
  GI50: > 100 µM (inactive)
KM12
  GI50: > 100 µM (inactive)
LOX IMVI
  GI50: > 100 µM (inactive)
M14
  GI50: > 100 µM (inactive)
MCF7
  GI50: > 100 µM (inactive)
MDA-MB-231
  GI50: > 100 µM (inactive)
MDA-MB-435
  GI50: > 100 µM (inactive)
MOLT-4
  GI50: > 100 µM (inactive)
NCI-H226
  GI50: > 100 µM (inactive)
NCI-H23
  GI50: > 100 µM (inactive)
NCI-H460
  GI50: > 100 µM (inactive)
NCI-H522
  GI50: > 100 µM (inactive)
NCI/ADR-RES
  GI50: > 100 µM (inactive)
OVCAR-3
  GI50: > 100 µM (inactive)
OVCAR-4
  GI50: > 100 µM (inactive)
OVCAR-5
  GI50: > 100 µM (inactive)
OVCAR-8
  GI50: > 100 µM (inactive)
PC-3
  GI50: > 100 µM (inactive)
RPMI-8226
  GI50: > 100 µM (inactive)
RXF 393
  GI50: > 100 µM (inactive)
SF-268
  GI50: > 100 µM (inactive)
SF-295
  GI50: > 100 µM (inactive)
SF-539
  GI50: > 100 µM (inactive)
SK-MEL-28
  GI50: > 100 µM (inactive)
SK-MEL-2
  GI50: > 100 µM (inactive)
SK-MEL-5
  GI50: > 100 µM (inactive)
SK-OV-3
  GI50: > 100 µM (inactive)
SN12C
  GI50: > 100 µM (inactive)
SNB-19
  GI50: > 100 µM (inactive)
SNB-75
  GI50: > 100 µM (inactive)
SR
  GI50: 48.4 µM (inactive)
SW-620
  GI50: > 100 µM (inactive)
T47D
  GI50: > 100 µM (inactive)
TK-10
  GI50: > 100 µM (inactive)
U-251
  GI50: > 100 µM (inactive)
UACC-257
  GI50: > 100 µM (inactive)
UACC-62
  GI50: > 100 µM (inactive)
UO-31
  GI50: > 100 µM (inactive)
